Columns and labels:
[1] = system: LACV; experiment: Antiviral efficacy against LACV in Vero cells, virus titer by plaque assay; assay type: cell-based; conditions: La Crosse virus, LACV 0.1 MOI, 24 hpi, read-out: EC50 (50% reduction in virus titer)
Method: (§1) Cells were seeded in 24-well plates (1 × 10^5 cells/well) and infected with LACV (0.1 MOI). At 1 hour post infection (hpi), medium was replaced with fresh medium containing 6 different concentrations for each of the drugs. RBV and FAV were tested at concentrations of 1, 3, 10, 30, 100, and 300 μM, while NHC was tested at concentrations of 0.1, 0.3, 1, 3, 10 and 30 μM. DMSO was used as vehicle control. At 24 hpi, the cell supernatant was harvested, centrifuged to eliminate cell debris and stored at −80 °C for sequencing (described below) and plaque assay following the method of Ojha et al. 2021 [32]. Quantified virus titers were plotted to represent antiviral efficacy. The EC50 (50% effective concentration representing a 50% reduction in virus titer) was determined by extrapolating a dose-response curve using GraphPad Prism 8 and 9.

[2] = system: LACV; experiment: Antiviral efficacy against LACV in N2a cells, virus titer by plaque assay; assay type: cell-based; conditions: La Crosse virus, LACV 0.1 MOI, 24 hpi, read-out: EC50 (50% reduction in virus titer)
Method: as §1

[3] = system: LACV; experiment: Antiviral efficacy against LACV in hNSCs, virus titer by plaque assay; assay type: cell-based; conditions: La Crosse virus, LACV 0.1 MOI, 24 hpi, read-out: EC50 (50% reduction in virus titer)
Method: as §1

[4] = system: LACV; experiment: Serial passage of LACV in presence of NHC in Vero cells (resistance selection); assay type: cell-based, La Crosse virus; conditions: for EC50: La Crosse virus, Vero cells
Method: as §1
We used a digital scanner to scan the plaque assay plates. Digitized images were imported into FIJI/ImageJ v1.52n, and pixel calibration values were calculated based on the well diameter and corresponding digitized image. To quantify plaque size (surface area), wells with clearly isolated plaques were selected for segmentation and analysis. The image lookup table for each well was inverted followed by binarization prior to analysis, with a minimum area of 0.39 mm^2 to eliminate false positives due to slight variations in crystal violet staining. The measurements were imported into Microsoft Excel for data compilation, and graphed and analyzed using GraphPad Prism v9.3.1. Analysis of plaque size was done only when the plaque assays for different virus samples were done in parallel.
Vero cells were seeded at 5×10^5 cells/well in a 6-well plate for each passage. For the first passage, Vero cells were infected with LACV at MOIs of 10, 0.1, and 0.001 in 3 ml of medium, and treated with 0.1 μM of NHC or DMSO vehicle control. After 3 dpi, the virus inoculum was harvested from wells where more than 25% of cells were still attached to the well (using light microscopy). The harvested supernatants were centrifuged to clarify dead cells and then used to reinfect Vero cells at dilutions of 1:1,000, 1:100,000, and 1:10,000,000 and treated with 0.1 μM NHC for the first series of 5 passages where at each passage the culture with the highest dilution of virus that still gave rise to incomplete CPE (i.e. 25% of the cells still attached) was saved for the next passage. Second, third, and fourth series of 5 passages were treated with 0.2, 0.4 and 0.8 μM of NHC, respectively. After 20 passages in total, virus suspensions were collected, centrifuged, and frozen at −80°C to perform dose-dependent antiviral activity and plaque assays for virus titers (as described above).

[5] = system: Cache Valley virus (CVV); experiment: Antiviral efficacy against Cache Valley virus in Vero cells, plaque assay; assay type: cell-based; conditions: 24 hpi, read-out: EC50 infectious virus production
Method: as §1
(§2) We also evaluated the ability of NHC to inhibit the replication of two other orthobunyaviruses, Cache Valley virus (CVV) and Jamestown Canyon (JCV). JCV belongs to the same serogroup as LACV but causes neurological disease in both children and adults. CVV is a member of the Bunyamwera serogroup and is the most common orthobunyavirus in the United States. Infections were done following the same protocol as for Fig 1. […] Thus, NHC inhibited virus replication for multiple orthobunyaviruses in different serogroups with similar potency.

[6] = system: Jamestown Canyon (JCV); experiment: Antiviral efficacy against Jamestown Canyon virus in Vero cells, plaque assay; assay type: cell-based; conditions: 24 hpi, read-out: EC50 infectious virus production
Method: as §1, §2

[7] = in vitro; assay type: cell-based; conditions: MTT, 24h
Method: Method: Cells were seeded in 96-well plates (1-2x10^4 cells/well) after attachment different concentrations of each drug containing fresh media were added to each well, in triplicate. DMSO was used as a control. At 24h post-treatment, MTT assays were carried out according to the manufacturer’s instructions (Invitrogen, ThermoFisher Scientific). The absorbance was measured using the Synergy 4 cell plate reader (BioTek) at 540 nm. This assay was used to estimate the drug-induced cytotoxicity using the following formula: (sample absorbance/DMSO absorbance) × 100%. The CC50 (50% cytotoxic concentration) was determined by extrapolating the dose–response curve.

[8] = system: LACV; experiment: MPID-NGS mutation rate of LACV in cell culture; assay type: cell-based, La Crosse virus; conditions: Vero cells; RBV, FAV: increase only at 100 μM; NHC also in hNSCs and N2a
Method: as §1
We used a Primer ID (PID) library preparation approach with Illumina MiSeq next-generation sequencing (NGS) to examine the mutagenic effects of these drugs on viral RNA allowing deep coverage of the viral population while maintaining a low method error rate (1 in 10,000 nucleotides). We designed cDNA primers targeting a 372 bp region of the RdRp gene within the L segment (referred as L7 in the study), and included a second amplicon covering a 455 bp portion of the M segment (referred as M4 in the study). Each cDNA primer included a block of random nucleotides (11 bases long) as the Primer ID/unique molecular identifier (UMI). […] After gel purification/extraction of the PCR product (Qiagen MinElute Gel Extraction kit), the extracted libraries were quantified using a Qubit fluorimeter and subjected to Agilent TapeStation analysis. For each sequencing run, 24 quantified libraries were pooled for MiSeq 300 base paired-end sequencing at the UNC High Throughput Sequencing Facility. […] Each type of substitution rate was calculated against the wildtype sequence at the sequenced regions. The sequencing date were submitted to the National Center for Biotechnology Information (NCBI) Sequence Read Archive (SRA), accession number is PRJNA1092655.

[9] = African green monkey, Vero cells

SMILES	EC50 [1] [µM]	EC50 [2] [µM]	EC50 [3] [µM]	EC50 ([4]; after 20 passages with 0.1 to 0.8 μM NHC, read-out: EC50 against NHC-selected LACV) [µM]	EC50 ([4]; after 20 passages, read-out: EC50 against control (DMSO) passaged LACV) [µM]	supernatant virus titer at end of selection lower than control passaged virus ([4]; passage 20)	average plaque size of virus passaged with NHC vs DMSO control ([4]; passage 20 virus stocks)	EC50 [5] [µM]	EC50 [6] [µM]	CC50 [7, 9] [µM]	CC50 ([7]; human, hNSCs) [µM]	mutation rate of LACV grown in presence of drug [8]
O=c1nc(NO)ccn1[C@@H]1O[C@H](CO)[C@@H](O)[C@H]1O [NHC, N^4-hydroxycytidine]	0.57	1.5	1.2	0.49	0.5	approximately 15 fold	significantly smaller	0.25	0.3	203	132	dose-dependent relationship
NC(=O)c1ncn([C@@H]2O[C@H](CO)[C@@H](O)[C@H]2O)n1 [RBV, ribavirin]	42.7	3.8	27.7							1780	1260	did not see a significant increase in mutation rates

— paper PMC11493283, “N^4-Hydroxycytidine/molnupiravir inhibits RNA virus-induced encephalitis by producing less fit mutated viruses” (PLOS Pathogens, 2024)
